Results reported in ChEMBL document CHEMBL3286359, “Synthesis and SAR of substituted pyrazolo[1,5-a]quinazolines as dual mGlu(2)/mGlu(3) NAMs” (Bioorg Med Chem Lett, 2014).
Active and inactive are the calls of the source. No cut-off for these calls is given here.

Assays:
[1] = target: Metabotropic glutamate receptor 2 (Rattus norvegicus, UniProt P31421); experiment: Inhibition of rat mGlu2 receptor transfected in HEK293 cells coexpressing mouse Galpha15 assessed as decrease in glutamate-induced calcium signaling by fluorescence plate reader analysis in presence of glutamate at EC76 concentration; assay type: functional, cell-based
[2] = target: Metabotropic glutamate receptor 3 (Rattus norvegicus, UniProt P31422); experiment: Inhibition of rat mGlu3 receptor transfected in HEK293 cells coexpressing mouse Galpha15 assessed as decrease in glutamate-induced calcium signaling by fluorescence plate reader analysis in presence of glutamate at EC87 concentration; assay type: functional, cell-based
[3] = target: Metabotropic glutamate receptor 2 (Rattus norvegicus) (UniProt P31421); experiment: Negative allosteric modulatory activity at rat mGlu2 receptor transfected in HEK293 cells coexpressing mouse Galpha15 assessed as decrease in glutamate-induced calcium signaling by fluorescence plate reader analysis in presence of glutamate at EC76 concentration; assay type: functional, cell-based
Chain of Metabotropic glutamate receptor 2 (Rattus norvegicus) (P31421 19-872 limits assumed): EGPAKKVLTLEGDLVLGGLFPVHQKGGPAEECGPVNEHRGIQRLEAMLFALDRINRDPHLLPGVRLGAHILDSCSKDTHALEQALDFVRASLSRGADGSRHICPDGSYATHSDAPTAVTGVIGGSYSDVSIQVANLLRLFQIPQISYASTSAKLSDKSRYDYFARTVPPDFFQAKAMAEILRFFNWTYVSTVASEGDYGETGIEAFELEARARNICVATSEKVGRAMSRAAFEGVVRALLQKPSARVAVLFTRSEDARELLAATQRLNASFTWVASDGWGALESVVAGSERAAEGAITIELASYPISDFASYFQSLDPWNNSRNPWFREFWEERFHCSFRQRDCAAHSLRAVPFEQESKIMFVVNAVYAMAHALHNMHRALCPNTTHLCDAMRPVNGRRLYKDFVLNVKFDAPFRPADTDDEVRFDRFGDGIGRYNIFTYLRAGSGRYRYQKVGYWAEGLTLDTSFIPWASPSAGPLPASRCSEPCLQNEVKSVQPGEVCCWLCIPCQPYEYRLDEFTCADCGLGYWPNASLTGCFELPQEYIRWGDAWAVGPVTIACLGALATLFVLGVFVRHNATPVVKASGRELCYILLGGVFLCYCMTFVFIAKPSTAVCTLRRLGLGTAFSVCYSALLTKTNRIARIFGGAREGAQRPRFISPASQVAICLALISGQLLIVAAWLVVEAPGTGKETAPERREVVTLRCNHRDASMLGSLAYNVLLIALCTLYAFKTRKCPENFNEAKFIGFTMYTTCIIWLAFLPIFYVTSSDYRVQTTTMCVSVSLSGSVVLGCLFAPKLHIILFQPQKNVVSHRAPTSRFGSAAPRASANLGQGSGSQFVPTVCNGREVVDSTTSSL

[4] = target: Metabotropic glutamate receptor 2 (Rattus norvegicus) (UniProt P31421); experiment: Inhibition of rat mGlu2 receptor assessed as decrease in glutamate-induced calcium signaling at 10 uM by fluorescence plate reader analysis; assay type: functional
[5] = target: Metabotropic glutamate receptor 5 (Rattus norvegicus) (UniProt P31424); experiment: Activity at rat mGlu5 receptor assessed as glutamate-induced calcium signaling at 10 uM by fluorescence plate reader analysis; assay type: functional
Chain of Metabotropic glutamate receptor 5 (Rattus norvegicus) (P31424 21-1203 limits assumed): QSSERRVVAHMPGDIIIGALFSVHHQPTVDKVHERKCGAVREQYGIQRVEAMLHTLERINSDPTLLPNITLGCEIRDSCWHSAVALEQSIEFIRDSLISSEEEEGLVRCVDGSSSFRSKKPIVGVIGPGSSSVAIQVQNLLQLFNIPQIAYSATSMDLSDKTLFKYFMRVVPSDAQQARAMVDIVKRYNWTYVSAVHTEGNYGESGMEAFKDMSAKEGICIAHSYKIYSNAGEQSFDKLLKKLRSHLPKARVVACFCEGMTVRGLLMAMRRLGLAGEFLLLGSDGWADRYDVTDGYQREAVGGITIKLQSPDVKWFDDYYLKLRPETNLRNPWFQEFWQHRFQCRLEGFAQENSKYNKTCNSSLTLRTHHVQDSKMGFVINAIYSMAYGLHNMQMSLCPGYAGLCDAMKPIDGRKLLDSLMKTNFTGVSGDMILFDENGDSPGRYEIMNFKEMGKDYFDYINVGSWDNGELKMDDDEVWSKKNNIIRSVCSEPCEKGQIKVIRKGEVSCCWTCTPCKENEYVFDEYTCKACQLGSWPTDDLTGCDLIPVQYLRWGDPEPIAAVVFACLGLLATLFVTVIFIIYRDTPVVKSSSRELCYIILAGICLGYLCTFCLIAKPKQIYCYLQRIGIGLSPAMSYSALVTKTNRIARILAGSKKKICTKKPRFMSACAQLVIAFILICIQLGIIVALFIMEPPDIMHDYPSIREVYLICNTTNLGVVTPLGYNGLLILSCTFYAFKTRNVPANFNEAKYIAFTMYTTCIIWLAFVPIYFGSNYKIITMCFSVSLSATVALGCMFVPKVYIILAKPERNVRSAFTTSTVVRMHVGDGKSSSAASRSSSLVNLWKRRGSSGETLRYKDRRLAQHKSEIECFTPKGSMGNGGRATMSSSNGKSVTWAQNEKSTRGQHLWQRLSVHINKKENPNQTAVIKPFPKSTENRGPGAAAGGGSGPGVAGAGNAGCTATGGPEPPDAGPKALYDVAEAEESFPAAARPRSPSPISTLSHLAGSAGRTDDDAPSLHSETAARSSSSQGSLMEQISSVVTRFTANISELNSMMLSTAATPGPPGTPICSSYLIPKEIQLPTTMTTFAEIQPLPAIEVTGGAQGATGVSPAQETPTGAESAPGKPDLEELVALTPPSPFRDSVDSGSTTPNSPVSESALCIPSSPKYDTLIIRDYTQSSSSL

[6] = target: Metabotropic glutamate receptor 4 (Rattus norvegicus) (UniProt P31423); experiment: Activity at rat mGlu4 receptor assessed as glutamate-induced GIRK response at 10 uM
Chain of Metabotropic glutamate receptor 4 (Rattus norvegicus) (P31423 whole entry): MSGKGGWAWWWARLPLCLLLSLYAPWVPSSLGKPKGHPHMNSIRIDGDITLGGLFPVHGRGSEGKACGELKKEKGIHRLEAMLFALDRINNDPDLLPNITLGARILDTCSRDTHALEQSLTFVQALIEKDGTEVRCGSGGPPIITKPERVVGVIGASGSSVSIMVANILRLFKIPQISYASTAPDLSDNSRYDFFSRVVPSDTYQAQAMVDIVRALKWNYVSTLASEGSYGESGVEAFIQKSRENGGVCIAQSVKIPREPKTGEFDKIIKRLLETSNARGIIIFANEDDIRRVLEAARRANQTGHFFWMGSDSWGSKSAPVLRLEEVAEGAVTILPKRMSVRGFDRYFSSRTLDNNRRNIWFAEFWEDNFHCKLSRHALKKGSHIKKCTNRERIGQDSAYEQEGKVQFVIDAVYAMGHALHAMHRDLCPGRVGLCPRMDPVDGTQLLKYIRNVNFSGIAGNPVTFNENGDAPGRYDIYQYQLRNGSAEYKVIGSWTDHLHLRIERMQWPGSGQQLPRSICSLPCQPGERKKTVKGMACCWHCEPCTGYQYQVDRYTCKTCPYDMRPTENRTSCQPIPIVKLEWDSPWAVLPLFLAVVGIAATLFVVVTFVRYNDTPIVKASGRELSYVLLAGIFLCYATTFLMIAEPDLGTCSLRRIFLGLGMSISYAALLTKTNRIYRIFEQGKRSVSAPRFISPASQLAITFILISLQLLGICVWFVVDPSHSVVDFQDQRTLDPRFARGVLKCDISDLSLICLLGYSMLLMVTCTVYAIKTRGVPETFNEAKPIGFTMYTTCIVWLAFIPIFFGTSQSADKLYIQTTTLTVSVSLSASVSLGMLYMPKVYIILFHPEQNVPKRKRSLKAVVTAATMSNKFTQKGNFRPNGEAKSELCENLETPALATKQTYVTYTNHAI

[7] = target: Metabotropic glutamate receptor 6 (Homo sapiens) (UniProt O15303); experiment: Activity at human mGlu6 receptor assessed as glutamate-induced GIRK response at 10 uM
[8] = target: Metabotropic glutamate receptor 7 (Rattus norvegicus) (UniProt P35400); experiment: Activity at rat mGlu7 receptor assessed as glutamate-induced GIRK response at 10 uM
[9] = target: Metabotropic glutamate receptor 8 (Rattus norvegicus) (UniProt P70579); experiment: Activity at rat mGlu8 receptor assessed as glutamate-induced GIRK response at 10 uM
Chain of Metabotropic glutamate receptor 8 (Rattus norvegicus) (P70579 whole entry): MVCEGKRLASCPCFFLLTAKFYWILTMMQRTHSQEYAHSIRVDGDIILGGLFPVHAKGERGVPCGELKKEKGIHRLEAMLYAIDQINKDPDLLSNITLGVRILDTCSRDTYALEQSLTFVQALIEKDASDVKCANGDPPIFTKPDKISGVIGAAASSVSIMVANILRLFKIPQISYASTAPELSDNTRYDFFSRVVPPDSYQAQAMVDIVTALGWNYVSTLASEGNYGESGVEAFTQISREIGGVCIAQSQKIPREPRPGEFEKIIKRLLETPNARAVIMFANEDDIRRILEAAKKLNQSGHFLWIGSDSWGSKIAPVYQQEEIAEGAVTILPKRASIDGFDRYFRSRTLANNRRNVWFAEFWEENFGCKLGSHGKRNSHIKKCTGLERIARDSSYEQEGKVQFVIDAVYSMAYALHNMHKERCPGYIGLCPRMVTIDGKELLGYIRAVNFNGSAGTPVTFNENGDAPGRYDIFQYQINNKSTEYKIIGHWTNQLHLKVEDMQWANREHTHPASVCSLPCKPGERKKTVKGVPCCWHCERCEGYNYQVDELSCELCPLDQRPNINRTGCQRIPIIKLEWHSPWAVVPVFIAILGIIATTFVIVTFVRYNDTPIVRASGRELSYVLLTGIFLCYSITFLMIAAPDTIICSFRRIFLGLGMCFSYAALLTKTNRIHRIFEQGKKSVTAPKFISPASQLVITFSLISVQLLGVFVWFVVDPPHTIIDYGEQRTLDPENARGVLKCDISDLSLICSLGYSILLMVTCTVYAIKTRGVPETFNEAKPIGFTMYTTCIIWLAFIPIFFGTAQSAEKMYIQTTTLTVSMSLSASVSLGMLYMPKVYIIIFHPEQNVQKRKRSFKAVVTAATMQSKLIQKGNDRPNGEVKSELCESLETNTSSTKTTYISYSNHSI

Plasma [10] = experiment: Fraction unbound in human plasma; assay type: ADME, cell-free
Plasma [11] = experiment: Fraction unbound in rat plasma; assay type: ADME, cell-free
[12] = target: Metabotropic glutamate receptor 3 (Rattus norvegicus) (UniProt P31422); details: 10 uM
Chain of Metabotropic glutamate receptor 3 (Rattus norvegicus) (P31422 23-879 limits assumed): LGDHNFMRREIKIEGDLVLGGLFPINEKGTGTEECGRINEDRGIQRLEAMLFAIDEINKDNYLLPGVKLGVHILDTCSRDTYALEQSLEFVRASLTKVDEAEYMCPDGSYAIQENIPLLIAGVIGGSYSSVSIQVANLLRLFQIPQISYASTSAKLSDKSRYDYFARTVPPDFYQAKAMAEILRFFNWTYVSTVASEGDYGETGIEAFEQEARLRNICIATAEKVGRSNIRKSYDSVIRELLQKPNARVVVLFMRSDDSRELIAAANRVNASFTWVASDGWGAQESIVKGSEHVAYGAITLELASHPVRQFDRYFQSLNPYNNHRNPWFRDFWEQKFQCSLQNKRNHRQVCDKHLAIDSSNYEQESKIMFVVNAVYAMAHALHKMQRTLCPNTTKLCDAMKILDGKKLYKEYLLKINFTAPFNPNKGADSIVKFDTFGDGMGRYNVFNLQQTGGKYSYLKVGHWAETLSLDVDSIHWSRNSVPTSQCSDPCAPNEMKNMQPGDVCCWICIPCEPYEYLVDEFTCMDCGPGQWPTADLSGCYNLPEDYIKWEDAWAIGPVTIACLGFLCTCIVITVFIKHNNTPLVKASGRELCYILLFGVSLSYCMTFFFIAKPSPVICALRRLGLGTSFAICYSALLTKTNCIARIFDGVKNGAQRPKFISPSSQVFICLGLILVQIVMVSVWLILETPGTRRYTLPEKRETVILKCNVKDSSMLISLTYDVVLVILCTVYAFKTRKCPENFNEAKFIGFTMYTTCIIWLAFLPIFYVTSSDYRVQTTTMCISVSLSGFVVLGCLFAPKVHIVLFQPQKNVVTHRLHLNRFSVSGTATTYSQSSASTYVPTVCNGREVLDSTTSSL
Description: Inhibition of rat mGlu3 receptor assessed as decrease in glutamate-induced calcium signaling at 10 uM by fluorescence plate reader analysis

IC50 [1]: 245 nM | IC50 [2]: 78 nM | Activity [3]: Dose-dependent effect | inhibition [4]: Active | Activity [5]: inactive | Activity [6]: inactive | Activity [7]: inactive | Activity [8]: inactive | Activity [9]: inactive | Fu (Plasma [10]): 0.008 | Fu (Plasma [11]): 0.003 | inhibition [12]: Active
Compound: Cn1c(=O)c2ccc(-c3cncnc3)cc2n2nc(-c3ccccc3)cc12
